Patent US4579951A (priority 1984, dated 1986)
Counter-ions that a name gives are not always drawn.

These compounds were tested on cholera toxin-induced intestinal fluid secretion (assay: animal or person). Settings: Rattus norvegicus, sc, read-out: Inhibitory Doses (ID50's).
Format: in vivo, rat (female Charles River)
`Cc1c(NC2=NCCC2)cccc1OC(=O)c1ccc(Cl)cc1` [Example 20, 3-[(3,4-dihydro-2H-pyrrol-5-yl)amino]-2-methylphenyl 4-chlorobenzoate hydrochloride 1/4 ethanol] gave an ED50 of 10.6 mg/kg.
Work on `Cc1c(NC2=NCCC2)cccc1OC(=O)c1ccco1` [Example 24, 3-[(3,4-dihydro-2H-pyrrol-5-yl)amino]-2-methylphenyl furan-2-carboxylate hydrochloride 1/8 methanol] yielded an ED50 of 8.3 mg/kg.
With `Cc1c(NC2=NCCC2)cccc1OC(=O)C1CCCCC1.Cl` [Example 14, 3-[(3,4-dihydro-2H-pyrrol-5-yl)amino]-2-methylphenyl cyclohexanecarboxylate hydrochloride] the ED50 was 8.1 mg/kg.
`Cc1c(O)cccc1NC1=NCCC1.Cl` [Example 3, 3-[(3,4-dihydro-2H-pyrrol-5-yl)amino]-2-methylphenol hydrochloride] gave an ED50 of 8.3 mg/kg.
In the case of `Cc1ccccc1C(=O)Oc1cccc(NC2=NCCC2)c1C.Cl` [Example 18, 3-[(3,4-dihydro-2H-pyrrol-5-yl)amino]-2-methylphenyl 2-methylbenzoate hydrochloride], the ED50 is reported as 40.5 mg/kg.
With `Cc1cc(O)ccc1NC1=NCCC1` [Example 6, 4-[(3,4-dihydro-2H-pyrrol-5-yl)amino]-3-methylphenol 1/4 hydrate] the ED50 was 6.5 mg/kg.
In the case of `CC(=O)Oc1cccc(NC2=NCCC2)c1C.Cl` [Example 16, 3-[(3,4-dihydro-2H-pyrrol-5-yl)amino]-2-methylphenyl acetate hydrochloride], the ED50 is reported as 10.1 mg/kg.
`Cc1ccc(C(=O)Oc2cccc(NC3=NCCC3)c2C)cc1.Cl` [Example 19, 3-[(3,4-dihydro-2H-pyrrol-5-yl)amino]-2-methylphenyl 4-methylbenzoate hydrochloride] showed an ED50 of 5.9 mg/kg.
`Cc1cc(OC(=O)C(C)(C)C)ccc1NC1=NCCC1` [Example 11, 4-[(3,4-dihydro-2H-pyrrol-5-yl)amino]-3-methylphenyl 2,2-dimethylpropanoatehydrochloride] showed an ED50 of 9 mg/kg.
In the case of `Cc1c(NC2=NCCC2)cccc1OC(=O)c1ccccc1` [Example 12, 3-[(3,4-dihydro-2H-pyrrol-5-yl)amino]-2-methylphenyl benzoate hydrobromide 1/4 hydrate], the ED50 is reported as 5.7 mg/kg.
Work on `Cc1c(NC2=NCCC2)cccc1OC(=O)C1CC1.Cl` [Example 22, 3-[(3,4-dihydro-2H-pyrrol-5-yl)amino]-2-methylphenyl cyclopropanecarboxylate hydrochloride] yielded an ED50 of 6.8 mg/kg.
Work on `COC(=O)c1ccc(NC2=NCCC2)c(C)c1` [reference compound] yielded an ED50 of 74 mg/kg.
For `Cc1c(NC2=NCCC2)cccc1OC(=O)c1ccc(Cl)c(Cl)c1.Cl` [Example 21, 3-[(3,4-dihydro-2H-pyrrol-5-yl)amino]-2-methylphenyl 3,4-dichlorobenzoate hydrochloride], the ED50 was 5 mg/kg.
Compound `COc1ccccc1C(=O)Oc1cccc(NC2=NCCC2)c1C.Cl` [Example 15, 3-[(3,4-dihydro-2H-pyrrol-5-yl)amino]-2-methylphenyl 2-methoxybenzoate hydrochloride] has an ED50 of 6.2 mg/kg.
`Cc1c(NC2=NCCC2)cccc1OC(=O)C12CC3CC(CC(C3)C1)C2` [Example 23, 3-[(3,4-dihydro-2H-pyrrol-5-yl)amino]-2-methylphenyl adamantane-1-carboxylate hydrochloride 1/4 hydrate] showed an ED50 of 9.1 mg/kg.
Compound `Oc1cccc(NC2=NCCC2)c1` [Example 5, 3-[3,4-dihydro-2H-pyrrol-5-yl)amino]phenol hydrochloride] has an ED50 of 21.3 mg/kg.
`COc1ccc(C(=O)Oc2cccc(NC3=NCCC3)c2C)cc1` [Example 17, 3-[(3,4-dihydro-2H-pyrrol-5-yl)amino]-2-methylphenyl 4-methoxybenzoate hydrochloride 5/8 hydrate] was tested, and the ED50 was 9.5 mg/kg.
`Cc1c(NC2=NCCC2)cccc1OC(=O)C(C)(C)C` [Example 10, 3-[(3,4-dihydro-2H-pyrrol-5-yl)amino]-2-methylphenyl 2,2-dimethylpropanoatehydrochloride 1/4 hydrate] showed an ED50 of 6.4 mg/kg.

Same assay, conditions: antisecretory antidiarrheal activity, qualitative statement
For `CN=C(N)NC(=O)Nc1c(C)cccc1C` [Lidamidine, reference compound], the “activity in the cholera-induced intestinal fluid secretion assay (in words)” value was “active”.

Same assay, conditions: subcutaneous route; class symbol; screening doses 10 and 20 mg/kg
In the case of `COc1ccc(NC2=NCCC2)c(C)c1` [reference compound], the “Inhibitory Doses (ID50's)” value is reported as “I”.
In the case of `COc1cccc(NC2=NCCC2)c1C` [reference compound], the “Inhibitory Doses (ID50's)” value is reported as “I”.
